The assay deals with T1, BA/F3-FLT3-ITD + F691L cells (Homo sapiens, UniProt P36888, F691L, cells depend on it, form not given).
T1 sequence (P36888 1-993 F691L): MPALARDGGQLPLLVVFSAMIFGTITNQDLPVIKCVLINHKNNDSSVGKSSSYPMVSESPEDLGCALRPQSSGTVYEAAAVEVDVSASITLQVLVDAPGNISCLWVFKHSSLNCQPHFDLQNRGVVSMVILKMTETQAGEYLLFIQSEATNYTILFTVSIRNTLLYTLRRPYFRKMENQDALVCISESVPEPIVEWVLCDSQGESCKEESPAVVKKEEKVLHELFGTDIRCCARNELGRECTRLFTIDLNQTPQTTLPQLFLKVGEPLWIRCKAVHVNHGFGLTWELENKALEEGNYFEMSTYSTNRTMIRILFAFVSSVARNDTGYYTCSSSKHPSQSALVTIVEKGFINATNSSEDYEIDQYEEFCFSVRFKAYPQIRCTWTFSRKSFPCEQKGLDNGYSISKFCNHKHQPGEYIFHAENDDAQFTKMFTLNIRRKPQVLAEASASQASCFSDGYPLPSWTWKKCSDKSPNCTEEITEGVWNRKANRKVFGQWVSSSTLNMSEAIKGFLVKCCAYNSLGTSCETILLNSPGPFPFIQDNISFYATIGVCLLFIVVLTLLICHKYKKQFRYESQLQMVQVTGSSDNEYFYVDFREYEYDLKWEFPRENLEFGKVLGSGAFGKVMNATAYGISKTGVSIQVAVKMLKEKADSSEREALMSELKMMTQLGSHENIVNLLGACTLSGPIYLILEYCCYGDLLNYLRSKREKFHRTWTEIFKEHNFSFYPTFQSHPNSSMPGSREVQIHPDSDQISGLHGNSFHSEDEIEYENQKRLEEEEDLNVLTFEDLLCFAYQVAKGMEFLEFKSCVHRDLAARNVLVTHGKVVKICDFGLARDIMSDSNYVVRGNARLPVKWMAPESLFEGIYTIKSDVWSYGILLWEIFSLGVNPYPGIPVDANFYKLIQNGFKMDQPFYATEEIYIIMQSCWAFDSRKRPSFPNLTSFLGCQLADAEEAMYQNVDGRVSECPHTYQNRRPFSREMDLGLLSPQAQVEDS
The assay is described as follows: BA/F3-FLT3-ITD + F691L cell proliferation assay (CellTiter-Glo). It counts as cell-based, murine. The note with it: BaF3 FLT3 ITD/F691L cells; read-out: Cell Activity (IC50 μM) BaF3_FLT3_ITD/F691L. From the text:
The FLT3 inhibitors may also be assessed using leukemia cell lines that express endogenous FLT3-ITD or cells that are engineered to express wild-type or mutant FLT3. The cells expressing endogenous FLT3 are dependent upon FLT3 catalytic activity for growth. For the engineered cells, murine BA/F3 cells were transfected with full-length FLT3 (either wild-type, or containing the ITD, D835Y, or F691L mutations, as noted). The parental BA/F3 cells are dependent upon Interleukin-3 (IL-3) for survival, and introduction of the FLT3 constructs renders these cells dependent upon FLT3 kinase activity when cultured in the absence of IL-3. Engineered BA/F3 cell growth assays can be performed in either the absence or presence of IL-3, to assess the compound inhibition of FLT3 or to detect the presence of off-target activity, respectively. Inhibitors of FLT3 kinase activity reduce or eliminate the FLT3 oncogenic signaling, resulting in reduced cell proliferation. This inhibition is measured as a function of compound concentration to assess IC50 values.
Cells were seeded at 1×10^4 cells per well of a 96 well cell culture plate in 50 μl of cell culture medium. Compounds were dissolved in DMSO, typically at a concentration of 5 mM and were serially diluted 1:3 for a total of eight points and added to the cells to final concentrations of 10, 3.3, 1.1, 0.37, 0.12, 0.041, 0.014 and 0.0046 μM in 100 μl cell culture medium (final concentration 0.2% DMSO). […] The cells were incubated at 37° C., 5% CO2 for three days. CellTiter-Glo Buffer (Promega Cell Viability Assay catalog #G7573) and substrate were equilibrated to room temperature, and enzyme/substrate Recombinant Firefly Luciferase/Beetle Luciferin was reconstituted. The cell plates were equilibrated to room temperature for 30 minutes, then lysed by addition of an equivalent volume of the Celltiter-Glo Reagent. The plate was mixed for 10 minutes on a plate shaker to lyse the cells. The plates were read on a Tecan M1000 using Luminescence protocol modified to read 0.1 s per well. The luminescence reading assesses the ATP content, which correlates directly with cell number such that the reading as a function of compound concentration was used to determine the IC50 value.
With `O=S1(=O)CCCCN1c1cccc(-c2cnc3[nH]cc(-c4ccc5ncn(C6CCCNC6)c5c4)c3n2)c1` (stereo not shown) [P-253, 2-[3-[7-[3-(3-piperidyl)benzimidazol-5-yl]-5H-pyrrolo[2,3-b]pyrazin-2-yl]phenyl]thiazinane 1,1-dioxide], the GI50 lay in the range of 0.0001 to 1 µM.

Take `CC(C)n1cnc2ccc(-c3c[nH]c4ncc(-c5cnn(C(F)F)c5)cc34)cc21` [P-267, 5-[1-(difluoromethyl)pyrazol-4-yl]-3-(3-isopropylbenzimidazol-5-yl)-1H-pyrrolo[2,3-b]pyridine]: the GI50 was in the range of 0.0001 to 1 µM.

As to `COc1cc(-c2cnc3[nH]cc(-c4ccc5ncn(C(C)(C)CO)c5c4)c3n2)ccn1` [P-186, 2-[6-[2-(2-methoxy-4-pyridyl)-5H-pyrrolo[2,3-b]pyrazin-7-yl]benzimidazol-1-yl]-2-methyl-propan-1-ol], the GI50 lay within 0.0001 to 1 µM.

Take `CC(C)(C)n1cnc2ccc(-c3c[nH]c4ncc(-c5cnn(C(F)F)c5)cc34)cc21` [P-251, 1-tert-butyl-6-[5-[1-(difluoromethyl)pyrazol-4-yl]-1H-pyrrolo[2,3-b]pyridin-3-yl]benzimidazole]: the GI50 lay within 0.0001 to 1 µM.

Consider `N#Cc1cccc(C#Cc2cnc3[nH]cc(-c4ccc5ncn(C6CCCNC6)c5c4)c3c2)c1` (stereo not shown) [P-243, 3-[2-[3-[3-(3-piperidyl)benzimidazol-5-yl]-1H-pyrrolo[2,3-b]pyridin-5-yl]ethynyl]benzonitrile], for which the GI50 is 0.0001 to 1 µM.

`CC(C)(C)n1cnc2ccc(-c3c[nH]c4ncc(-c5cnn(CC(F)(F)F)c5)nc34)cc21` [P-256, 7-(3-tert-butylbenzimidazol-5-yl)-2-[1-(2,2,2-trifluoroethyl)pyrazol-4-yl]-5H-pyrrolo[2,3-b]pyrazine]: the GI50 is 0.0001 to 1 µM.

On to `COc1cc(C#Cc2cnc3[nH]cc(-c4ccc5ncn(C(C)(C)C)c5c4)c3c2)ccn1` [P-240, 1-(tert-butyl)-6-(5-((2-methoxypyridin-4-yl)ethynyl)-1H-pyrrolo[2,3-b]pyridin-3-yl)-1H-benzo[d]imidazole], for which the GI50 is 0.0001 to 1 µM.

For `COc1cc(-c2cnc3[nH]cc(-c4ccc5ncn(C(C)C)c5c4)c3n2)ccn1` [P-113, 7-(3-isopropylbenzimidazol-5-yl)-2-(2-methoxy-4-pyridyl)-5H-pyrrolo[2,3-b]pyrazine], the GI50 was in the range of 0.0001 to 1 µM.

As to `CC(C)(C)n1cnc2ccc(-c3c[nH]c4ncc(C#Cc5cccc(C#N)c5)cc34)cc21` [P-242, 3-[2-[3-(3-tert-butylbenzimidazol-5-yl)-1H-pyrrolo[2,3-b]pyridin-5-yl]ethynyl]benzonitrile], the GI50 lay in the range of 1 to 10 µM.

On to `O=S1(=O)CCCN1c1cccc(-c2cnc3[nH]cc(-c4ccc5ncn(C6CCCNC6)c5c4)c3n2)c1` (stereo not shown) [P-273, 2-[3-[7-[3-(3-piperidyl)benzimidazol-5-yl]-5H-pyrrolo[2,3-b]pyrazin-2-yl]phenyl]-1,2-thiazolidine 1,1-dioxide], for which the GI50 lay in the range of 0.0001 to 1 µM.

Regarding `COc1ncccc1C#Cc1cnc2[nH]cc(-c3ccc4ncn(C(C)(C)C)c4c3)c2n1` [P-250, 7-(3-tert-butylbenzimidazol-5-yl)-2-[2-(2-methoxy-3-pyridyl)ethynyl]-5H-pyrrolo[2,3-b]pyrazine], the GI50 was 0.0001 to 1 µM.

As for `CC(C)(C)n1cnc2ccc(-c3c[nH]c4ncc(-c5cnc(N6CCOCC6)nc5)cc34)cc21` [P-266, 4-[5-[3-(3-tert-butylbenzimidazol-5-yl)-1H-pyrrolo[2,3-b]pyridin-5-yl]pyrimidin-2-yl]morpholine], the GI50 fell in the range of 0.0001 to 1 µM.

As for `CC(C)(C)n1cnc2ccc(-c3c[nH]c4ncc(-c5cccc(N6CCCS6(=O)=O)c5)nc34)cc21` [P-231, 2-[3-[7-(3-tert-butylbenzimidazol-5-yl)-5H-pyrrolo[2,3-b]pyrazin-2-yl]phenyl]-1,2-thiazolidine 1,1-dioxide], the GI50 fell in the range of 0.0001 to 1 µM.

Take `COc1cnc2[nH]cc(-c3ccc4ncn(-c5ccc(F)cc5)c4c3)c2c1` [P-103, 1-(4-fluorophenyl)-6-(5-methoxy-1H-pyrrolo[2,3-b]pyridin-3-yl)benzimidazole]: the GI50 was 0.0001 to 1 µM.

`C#Cc1cnc2[nH]cc(-c3ccc4ncn(C(C)(C)C)c4c3)c2n1` [P-259, 7-(3-tert-butylbenzimidazol-5-yl)-2-ethynyl-5H-pyrrolo[2,3-b]pyrazine]: the GI50 is 0.0001 to 1 µM.

For `COc1ncc(-c2cnc3[nH]cc(-c4ccc5ncn(C6CCCNC6)c5c4)c3n2)cn1` (stereo not shown) [P-264, 2-(2-methoxypyrimidin-5-yl)-7-[3-(3-piperidyl)benzimidazol-5-yl]-5H-pyrrolo[2,3-b]pyrazine], the GI50 was 0.0001 to 1 µM.

`N#Cc1cc(-c2cnc3[nH]cc(-c4ccc5ncn(C6CCCNC6)c5c4)c3c2)ccc1F` (stereo not shown) [P-208, 2-fluoro-5-[3-[3-(3-piperidyl)benzimidazol-5-yl]-1H-pyrrolo[2,3-b]pyridin-5-yl]benzonitrile]: the GI50 lay within 0.0001 to 1 µM.

Consider `Cn1cnc2ccc(-c3c[nH]c4ncc(-c5cnn(CC(F)(F)F)c5)cc34)cc21` [P-175, 1-methyl-6-[5-[1-(2,2,2-trifluoroethyl)pyrazol-4-yl]-1H-pyrrolo[2,3-b]pyridin-3-yl]benzimidazole], for which the GI50 lay within 0.0001 to 1 µM.

In the case of `CC(C)(C)n1cnc2ccc(-c3c[nH]c4ncc(-c5cccc(N6CCCCS6(=O)=O)c5)cc34)cc21` [P-221, 2-[3-[3-(3-tert-butylbenzimidazol-5-yl)-1H-pyrrolo[2,3-b]pyridin-5-yl]phenyl]thiazinane 1,1-dioxide], the GI50 was 0.0001 to 1 µM.

With `CC(C)(CO)n1cnc2ccc(-c3c[nH]c4ncc(-c5cccc(NS(C)(=O)=O)c5)nc34)cc21` [P-115, N-[3-[7-[3-(2-hydroxy-1,1-dimethyl-ethyl)benzimidazol-5-yl]-5H-pyrrolo[2,3-b]pyrazin-2-yl]phenyl]methanesulfonamide], the GI50 lay in the range of 0.0001 to 1 µM.

As to `c1cc(N2CCOCC2)ccc1-c1cnc2[nH]cc(-c3ccc4ncn(C5CCCNC5)c4c3)c2n1` (stereo not shown) [P-101, 4-[4-[7-[3-(3-piperidyl)benzimidazol-5-yl]-5H-pyrrolo[2,3-b]pyrazin-2-yl]phenyl]morpholine], the GI50 was in the range of 0.0001 to 1 µM.

In the case of `COc1ncc(-c2cnc3[nH]cc(-c4ccc5ncn(C(C)C)c5c4)c3c2)cn1` [P-269, 1-isopropyl-6-[5-(2-methoxypyrimidin-5-yl)-1H-pyrrolo[2,3-b]pyridin-3-yl]benzimidazole], the GI50 is 0.0001 to 1 µM.

In the case of `CN(c1cccc(-c2cnc3[nH]cc(-c4ccc5ncn(C)c5c4)c3n2)c1)S(C)(=O)=O` [P-150, N-methyl-N-[3-[7-(3-methylbenzimidazol-5-yl)-5H-pyrrolo[2,3-b]pyrazin-2-yl]phenyl]methanesulfonamide], the GI50 is 0.0001 to 1 µM.

In the case of `COc1cc(-c2cnc3[nH]cc(-c4ccc5ncn(C6CCCNC6)c5c4)c3n2)cc(OC)n1` (stereo not shown) [P-195, 2-(2,6-dimethoxy-4-pyridyl)-7-[3-(3-piperidyl)benzimidazol-5-yl]-5H-pyrrolo[2,3-b]pyrazine], the GI50 was in the range of 0.0001 to 1 µM.

Take `CC(C)(C)n1cnc2ccc(-c3c[nH]c4ncc(-c5ccc(F)c(C#N)c5)nc34)cc21` [P-230, 5-[7-(3-tert-butylbenzimidazol-5-yl)-5H-pyrrolo[2,3-b]pyrazin-2-yl]-2-fluoro-benzonitrile]: the GI50 fell in the range of 0.0001 to 1 µM.
